Test system: not listed separately
Test: Plasma concentration after intraduodenal administration to rats
Format: in vivo
Conditions: Sprague-Dawley, other: into the duodenum, rat, 10 mg/kg into the duodenum, 30 minutes after the administration
Procedure: A pharmacological experiment of the compound of the present invention was carried out using Sprague-Dawley rats (300-400 g). 10 mg/kg of a 50% polyethylene glycol (PEG) solution (1 ml/kg) was administered into the duodenum under anesthesia and blood was collected over time. After the addition of a solvent, the collected blood plasma sample was shaken and centrifuged. The organic layer was concentrated and dissolved in 50% methanol. The sample thus obtained was analyzed by HPLC for the determination of concentration of the compound in plasma. The HPLC analysis was carried out using Capecellpak C18 (4.6×150 mm, Shiseido LTD) as a column and a mixed solvent of 0.1% TFA aqueous solution and acetonitrile as an eluent (see T. Mimoto et al. J. Med. Chem., 42, 1789-1802, 1999).
The compound of the present invention was confirmed to have pharmacological characteristics expected as an in vivo effect of the compound. For instance, when the compound of Example 1 of the present invention is administered to a rat at a dose of 10 mg/kg into the duodenum, the compound is detected in plasma of the rat at a concentration of 0.42 μg/ml 30 minutes after the administration.

Which concentration at 30 min does the source give for COc1ccc(C[C@H](NC(=O)c2cccc(O)c2C)[C@H](O)C(=O)N2CSC(C)(C)[C@H]2C(=O)NCc2ccccc2C)cc1 [Ex. 1, (R)-N-(2-methylbenzyl)-3-[(2S,3S)-2-hydroxy-3-(3-hydroxy-2-methylbenzoyl)amino-4-(4-methoxyphenyl)butanoyl]-5,5-dimethyl-1,3-thiazolidine-4-carboxamide] here?
The concentration at 30 min was 420 ng/mL.

Test system: human plasma
Test: Protein binding to human plasma (ultrafiltration, unbound ratio)
Format: in vitro ADME
Conditions: concentration 1 μM; from regression line of FIG. 1; 18 hours at 37° C.
Procedure: Measurement of protein binding rate […] Freezed human plasma (HFFPP100) was used after thawing. Powder of human alpha 1-acid glycoprotein (supplied by SIGMA Co., hereinafter abbreviated to AAG) was dissolved in a phosphate buffer solution (PBS, pH 7.0) to a concentration of 1 mg/ml. […] Quantitative determination of unbound drug concentration […] All amount of the solution was transferred to Micropartition Devices (Centrifree®, Millipore Co.) and filtered by centrifugation at 1500 ×g for 20 minutes (using TOMY CX-210 high-speed cooling centrifugal machine). 200 μl of the filtrate was directly subjected to HPLC (Type: HITACHI D-7000, column: COSMOSIL (4.6* 250 mm, manufactured by Nacalai Tesque Co., Ltd.). The HPLC analysis was carried out by using a 59:41 (v/v) water-acetonitrile mixture containing 0.1% trifluoroacetic acid (TFA) as a mobile phase and measuring absorbance at 210 nm. The quantitative determination of unbound drug concentration was carried out based on the absolute calibration curve method using a calibration line obtained from the analysis of a standard sample which contains the drug at a known concentration. Analysis of protein binding properties A commonly accepted method (see Y. Odagiri et al., Protein Binding Experimental Method (1991), Hirokawa Publishing Co., Ltd.) was employed for the analysis of protein binding properties. […]

For COc1ccc(C[C@H](NC(=O)c2cccc(O)c2C)[C@H](O)C(=O)N2CSC(C)(C)[C@H]2C(=O)NCc2ccccc2C)cc1 [Ex. 1, (R)-N-(2-methylbenzyl)-3-[(2S,3S)-2-hydroxy-3-(3-hydroxy-2-methylbenzoyl)amino-4-(4-methoxyphenyl)butanoyl]-5,5-dimethyl-1,3-thiazolidine-4-carboxamide], which “ratio of unbound drug (human plasma)” value is on record?
The value was 0.029.

Test system: HIV virus (HIV-1 IIIB strain)
Test: Measurement of anti-HIV activity (cytopathic effect, XTT) in CEM-SS cells
Format: cell-based
Conditions: 6 days, in the presence of 50% human plasma
Procedure: Measurement of anti-HIV activity
The anti-HIV activity of the compounds synthesized Examples 1-15 and Reference Examples 1-4 was measured according to the method reported by 0. S. Weislow et al. (J. Natl. Cancer Inst. 81, 577-586, 1989) using CEM-SS cells as host cells and HIV virus (HIV-1 IIIB strain)(see T. Mimoto et al., J. Med. Chem., 42, 1789-1802, 1999, etc.).
Specifically, the compounds synthesized Examples 1-15 and […] in various concentrations were added to a culture medium on 96-well microtiter plates. Human blood serum was added to a final concentration of 50%, then HIV infected CEM-SS cells was added, followed by incubation in a CO2 atmosphere at 37° C. for 6 days. The cytopathic effect induced by HIV-1 IIIB was measured by tetrazolium dye XTT dyeing method to evaluate the 50% inhibitory concentration (IC50).

Which “Anti-HIV IC50” value does the source give for Cc1ccc(C[C@H](NC(=O)c2cccc(O)c2C)[C@H](O)C(=O)N2CSC(C)(C)[C@H]2C(=O)NCc2ccccc2C)cc1 [Ex. 9, (R)-N-(2-methylbenzyl)-3-[(2S,3S)-2-hydroxy-3-(3-hydroxy-2-methylbenzoyl)amino-4-(4-metylphenyl)butanoyl]-5,5-dimethyl-1,3-thiazolidine-4-carboxamide] here?
The value was 0.02 µg/mL.

Biological target: T1, recombinant HIV-1 protease (Human immunodeficiency virus type 1 group M subtype B, UniProt P04585)
T1 construct: 10.5 nM HIV-1 protease
Test: Measurement of HIV protease inhibitory activity
Format: biochemical
Conditions: 50 nM compound; 10.5 nM HIV-1 protease, pH 6.5, 37° C., 60 minutes
Procedure: Measurement of HIV protease inhibitory activity
The protease inhibitory activity was measured according to the method reported by T. Mimoto et al., J. Med. Chem., 42, 1789-1802 (1999) by using a recombinant HIV-1 protease (see Biochemistry, 250, 9, 264 (1990)) and a synthesized peptide substrate (H-Ser-Gln-Asn-Tyr-Pro-Ile-Val-OH). Specifically, reaction solutions (15 μl each) containing any one of the compounds synthesized in the above Examples 1-15 and Reference Examples 1-4, an inhibitor in which a known anti-AIDS agent (nelfinavir) is dissolved in DMSO in different concentrations, 10.5 nM HIV-1 protease, 20 mM synthesized peptide substrate, and 100 mM MES buffer solution (pH 6.5) were incubated at 37° C. for 60 minutes. Peptide fragments produced by cleaving the Tyr-Pro bonds in the synthesized peptide substrate was quantitatively measured by reverse phase HPLC.

Which “HIV protease inhibition rate (%) at 50 nM” value does the source give for Cc1ccc(C[C@H](NC(=O)c2cccc(O)c2C)[C@H](O)C(=O)N2CSC(C)(C)[C@H]2C(=O)NCc2ccccc2C)cc1 [Ex. 9, (R)-N-(2-methylbenzyl)-3-[(2S,3S)-2-hydroxy-3-(3-hydroxy-2-methylbenzoyl)amino-4-(4-metylphenyl)butanoyl]-5,5-dimethyl-1,3-thiazolidine-4-carboxamide] here?
Its value is 97%.

Same assay, conditions: 50 nM compound; 10.5 nM HIV-1 protease, pH 6.5, 37° C., 60 minutes; read-out: HIV protease inhibition rate (%) at 50 nM

For COc1ccc(C[C@H](NC(=O)c2cccc(O)c2C)[C@H](O)C(=O)N2CSC(C)(C)[C@H]2C(=O)NCc2cc(F)ccc2C)cc1 [Ex. 2, (R)-N-(5-fluoro-2-methylbenzyl)-3-[(2S,3S)-2-hydroxy-3-(3-hydroxy-2-methyl-benzoyl)amino-4-(4-methoxyphenyl)butanoyl]-5,5-dimethyl-1,3-thiazolidine-4-carboxamide], which inhibition at 0.05 µM is on record?
The inhibition at 0.05 µM was 97%.

For COc1ccc(C[C@H](NC(=O)c2cccc(O)c2C)[C@H](O)C(=O)N2CSC(C)(C)[C@H]2C(=O)NCc2ccccc2C)cc1 [Ex. 1, (R)-N-(2-methylbenzyl)-3-[(2S,3S)-2-hydroxy-3-(3-hydroxy-2-methylbenzoyl)amino-4-(4-methoxyphenyl)butanoyl]-5,5-dimethyl-1,3-thiazolidine-4-carboxamide], which inhibition at 0.05 µM is on record?
The inhibition at 0.05 µM was 95%.

For Cc1ccccc1CNC(=O)[C@H]1N(C(=O)[C@@H](O)[C@H](Cc2ccc(Cl)cc2)NC(=O)c2cccc(O)c2C)CSC1(C)C [Ex. 11, (R)-N-(2-methylbenzyl)-3-[(2S,3S)-2-hydroxy-3-(3-hydroxy-2-methylbenzoyl)amino-4-(4-chlorophenyl)butanoyl]-5,5-dimethyl-1,3-thiazolidine-4-carboxamide], which inhibition at 0.05 µM is on record?
Its inhibition at 0.05 µM is 97%.

For COc1ccc(C[C@H](NC(=O)c2ccc(F)c(O)c2C)[C@H](O)C(=O)N2CSC(C)(C)[C@H]2C(=O)NCc2ccccc2C)cc1 [Ex. 3, (R)-N-(2-methylbenzyl)-3-[(2S,3S)-2-hydroxy-3-(4-fluoro-3-hydroxy-2-methyl-benzoyl)amino-4-(4-methoxyphenyl)butanoyl]5,5-dimethyl-1,3-thiazolidine-4-carboxamide], which inhibition at 0.05 µM is on record?
The inhibition at 0.05 µM was 93%.

For Cc1c(O)cccc1C(=O)N[C@@H](CSc1ccccc1)[C@H](O)CN1C[C@H]2CCCC[C@H]2C[C@H]1C(=O)NC(C)(C)C [Re. 5, nelfinavir, reference compound], which inhibition at 0.05 µM is on record?
The inhibition at 0.05 µM was 93%.

With Cc1ccccc1CNC(=O)[C@H]1N(C(=O)[C@@H](O)[C@H](Cc2ccc3c(c2)OCO3)NC(=O)c2cccc(O)c2C)CSC1(C)C [Ex. 6, (R)-N-(2-methylbenzyl)-3-[(2S,3S)-2-hydroxy-3-(3-hydroxy-2-methylbenzoyl)amino-4-(3,4-methylenedioxyphenyl)butanoyl]-5,5-dimethyl-1,3-thiazolidine-4-carboxamide] as the compound, how does the inhibition at 0.05 µM read?
The inhibition at 0.05 µM was 97%.

For CCCOc1ccc(C[C@H](NC(=O)c2cccc(O)c2C)[C@H](O)C(=O)N2CSC(C)(C)[C@H]2C(=O)NCc2ccccc2C)cc1 [Ex. 7, (R)-N-(2-methylbenzyl)-3-[(2S,3S)-2-hydroxy-3-(3-hydroxy-2-methylbenzoyl)amino-4-(4-n-propoxyphenyl)butanoyl]-5,5-dimethyl-1,3-thiazolidine-4-carboxamide], which inhibition at 0.05 µM is on record?
The inhibition at 0.05 µM was 97%.

Which inhibition at 0.05 µM does the source give for Cc1ccccc1CNC(=O)[C@H]1N(C(=O)[C@@H](O)[C@H](Cc2ccc3c(c2)OCO3)NC(=O)c2cccc(N)c2Cl)CSC1(C)C [Ex. 13, (R)-N-(2-methylbenzyl)-3-[(2S,3S)-2-hydroxy-3-(3-amino-2-chlorobenzoyl)amino-4-(3,4-methylenedioxyphenyl)butanoyl]-5,5-dimethyl-1,3-thiazolidine-4-carboxamide] here?
Its inhibition at 0.05 µM is 95%.

With Cc1cccc(C)c1CNC(=O)[C@H]1N(C(=O)[C@@H](O)[C@H](Cc2ccc3c(c2)OCO3)NC(=O)c2cccc(N)c2Cl)CSC1(C)C [Ex. 15, (R)-N-(2,6-dimethylbenzyl)-3-[(2S,3S)-2-hydroxy-3-(3-amino-2-chlorobenzoyl)amino-4-(3,4-methylenedioxyphenyl)butanoyl]-5,5-dimethyl-1,3-thiazolidine-4-carboxamide] as the compound, how does the inhibition at 0.05 µM read?
The inhibition at 0.05 µM was 96%.

With Cc1ccccc1CNC(=O)[C@H]1N(C(=O)[C@@H](O)[C@H](Cc2ccc(C(C)C)cc2)NC(=O)c2cccc(O)c2C)CSC1(C)C [Ex. 10, (R)-N-(2-methylbenzyl)-3-[(2S,3S)-2-hydroxy-3-(3-hydroxy-2-methylbenzoyl)amino-4-(4-isopropylphenyl)butanoyl]-5,5-dimethyl-1,3-thiazolidine-4-carboxamide] as the compound, how does the inhibition at 0.05 µM read?
Its inhibition at 0.05 µM is 96%.

Which inhibition at 0.05 µM does the source give for CCOc1ccc(C[C@H](NC(=O)c2cccc(O)c2C)[C@H](O)C(=O)N2CSC(C)(C)[C@H]2C(=O)NCc2ccccc2C)cc1 [Ex. 5, (R)-N-(2-methylbenzyl)-3-[(2S,3S)-2-hydroxy-3-(3-hydroxy-2-methylbenzoyl)amino-4-(4-ethoxyphenyl)butanoyl]-5,5-dimethyl-1,3-thiazolidine-4-carboxamide] here?
Its inhibition at 0.05 µM is 95%.

With Cc1ccccc1CNC(=O)[C@H]1N(C(=O)[C@@H](O)[C@H](Cc2ccc(OC(C)C)cc2)NC(=O)c2cccc(O)c2C)CSC1(C)C [Ex. 8, (R)-N-(2-methylbenzyl)-3-[(2S,3S)-2-hydroxy-3-(3-hydroxy-2-methylbenzoyl)amino-4-(4-isopropoxyphenyl)butanoyl]-5,5-dimethyl-1,3-thiazolidine-4-carboxamide] as the compound, how does the inhibition at 0.05 µM read?
The inhibition at 0.05 µM was 96%.

For COc1ccc(C[C@H](NC(=O)c2cccc(N)c2Cl)[C@H](O)C(=O)N2CSC(C)(C)[C@H]2C(=O)NCc2ccccc2C)cc1 [Ex. 4, (R)-N-(2-methylbenzyl)-3-[(2S,3S)-2-hydroxy-3-(3-amino-2-chlorobenzoyl)amino-4-(4-methoxyphenyl)butanoyl]-5,5-dimethyl-1,3-thiazolidine-4-carboxamide], which inhibition at 0.05 µM is on record?
Its inhibition at 0.05 µM is 91%.

Which inhibition at 0.05 µM does the source give for CCOc1ccc(C[C@H](NC(=O)c2cccc(N)c2Cl)[C@H](O)C(=O)N2CSC(C)(C)[C@H]2C(=O)NCc2ccccc2C)cc1 [Ex. 12, (R)-N-(2-methylbenzyl)-3-[(2S,3S)-2-hydroxy-3-(3-amino-2-chlorobenzoyl)amino-4-(4-ethoxyphenyl)butanoyl]-5,5-dimethyl-1,3-thiazolidine-4-carboxamide] here?
Its inhibition at 0.05 µM is 89%.

For COc1ccc(C[C@H](NC(=O)c2cccc(N)c2Cl)[C@H](O)C(=O)N2CSC(C)(C)[C@H]2C(=O)NCc2c(C)cccc2C)cc1 [Ex. 14, (R)-N-(2,6-dimethylbenzyl)-3-[(2S,3S)-2-hydroxy-3-(3-amino-2-chlorobenzoyl)amino-4-(4-methoxyphenyl)butanoyl]-5,5-dimethyl-1,3-thiazolidine-4-carboxamide], which inhibition at 0.05 µM is on record?
The inhibition at 0.05 µM was 92%.
